From ChEMBL document CHEMBL1201862, “PubChem BioAssay data set” (2004) come the findings set out here.

Some test systems named below: HOP-92; BT-549; OVCAR-5; UACC-62; SW-620; RPMI-8226; CAKI-1; SF-539; SK-MEL-2; K562; CCRF-CEM; PC-3; SK-MEL-28; NCI-H226; DU-145; A498; A549; SNB-19; HT-29; NCI-H460.
Holding throughout (assay): growth of human tumour cells (NCI), 48 h

Structures are written as SMILES.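 Growth conditions: 96-well plates. Treatment: test compound, 48 hours, 5 concentrations. Analysis: linear interpolation between bracketing concentrations; unreached endpoints set to highest concentration. At the GI50, growth is halved.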 The source made the active and inactive calls. No stated cut-off is given here; in the data, active = GI50 up to about 1.1 µM and inactive = higher. Bounds are passed on as bounds.

With `c1nnc(NCNc2nncs2)s1`, the GI50 in the assay with HOP-92 is > 100 µM (inactive); with BT-549 it was > 100 µM (inactive); in the assay with OVCAR-5, 79.3 µM (inactive); in the assay on UACC-62 it was 93.3 µM (inactive); with SW-620 it was 45.8 µM (inactive); with RPMI-8226, 72.6 µM (inactive). The GI50 with CAKI-1 was 9.48 µM (inactive); in the assay on SF-539, 31 µM (inactive); with SK-MEL-2 it was 68.9 µM (inactive); with K562, 42.8 µM (inactive); in the assay on CCRF-CEM, 61.1 µM (inactive); in the assay on PC-3, 57.1 µM (inactive). For the same compound, the GI50 in the assay on SK-MEL-28 was 64.4 µM (inactive); with NCI-H226 it was > 100 µM (inactive); with DU-145 it was 16 µM (inactive); in the assay with A498, 4.16 µM (inactive); in the assay with A549, 23.6 µM (inactive); in the assay on SNB-19, > 100 µM (inactive). Moreover, the GI50 with HT-29 was 19.1 µM (inactive); in the assay with NCI-H460, 6.18 µM (inactive).
As for `O=S(=O)(O)c1cc(/N=N/c2cccc3ccccc23)c(O)c2ncccc12`, the GI50 was > 100 µM (inactive) with HOP-92; > 100 µM (inactive) in the assay with BT-549; 72.8 µM (inactive) with OVCAR-5; 36.2 µM (inactive) in the assay on UACC-62; 59.8 µM (inactive) in the assay with SW-620; 41.2 µM (inactive) in the assay on RPMI-8226. The GI50 in the assay on CAKI-1 was > 100 µM (inactive); with SF-539, 56.1 µM (inactive); in the assay with SK-MEL-2, 82 µM (inactive); with K562, 32.1 µM (inactive); in the assay with CCRF-CEM, 24.7 µM (inactive); in the assay with PC-3, 55.6 µM (inactive). Further, the GI50 in the assay with SK-MEL-28 is > 100 µM (inactive); in the assay on NCI-H226, 16 µM (inactive); in the assay with DU-145 it was > 100 µM (inactive); in the assay on A498 it was 31.8 µM (inactive); in the assay with A549, 35.4 µM (inactive); in the assay with SNB-19, > 100 µM (inactive). Also, the GI50 in the assay with HT-29 was 24.8 µM (inactive); in the assay on NCI-H460, 25.4 µM (inactive).
Regarding `CC(=O)O[C@H]1C(=O)[C@@]2(C)[C@H]([C@H](OC(=O)c3ccccc3)[C@]3(O)C[C@H](OC(=O)[C@H](O)[C@@H](NC(=O)c4ccc(N)cc4)c4ccccc4)C(C)=C1C3(C)C)[C@]1(OC(C)=O)CO[C@@H]1C[C@@H]2O`, the GI50 was 35.1 µM (inactive) with HOP-92; 0.0384 µM (active) in the assay with BT-549; 0.00687 µM (active) with OVCAR-5; 0.00815 µM (active) in the assay on UACC-62; < 0.005 µM (active) with SW-620; < 0.005 µM (active) with RPMI-8226. For the same compound, the GI50 in the assay with CAKI-1 was 4.66 µM (inactive); in the assay on SF-539 it was < 0.005 µM (active); with SK-MEL-2, < 0.005 µM (active); in the assay on K562 it was < 0.005 µM (active); in the assay with CCRF-CEM, < 0.005 µM (active); with PC-3, < 0.005 µM (active). The GI50 is > 50 µM (inactive) in the assay with SK-MEL-28; < 0.005 µM (active) in the assay with NCI-H226; 0.0191 µM (active) with DU-145; 0.0902 µM (active) with A498; 0.00847 µM (active) in the assay on A549; 0.00675 µM (active) with SNB-19. Moreover, the GI50 with HT-29 and in the assay with NCI-H460 was < 0.005 µM (active) throughout.
`Cc1cc(NS(=O)(=O)c2ccc(NC(=O)c3ccc4nc5ccccc5c(Nc5ccc(S(=O)(=O)N=C(N)N)cc5)c4c3)cc2)no1`: the GI50 in the assay on HOP-92 was 14.7 µM (inactive); with BT-549, 20.6 µM (inactive); in the assay with OVCAR-5 it was 17.5 µM (inactive); in the assay with UACC-62 it was 21.7 µM (inactive); with SW-620 it was 20.8 µM (inactive); with RPMI-8226 it was 23.7 µM (inactive). Moreover, the GI50 in the assay with CAKI-1 is 18.9 µM (inactive); with SF-539, 20.8 µM (inactive); in the assay with SK-MEL-2 it was 16.5 µM (inactive); in the assay with K562 it was 10.6 µM (inactive); in the assay with CCRF-CEM, 11.2 µM (inactive); with PC-3, 16.9 µM (inactive). Also, the GI50 in the assay with SK-MEL-28 was 18.2 µM (inactive); in the assay on NCI-H226, 14.2 µM (inactive); in the assay with DU-145, 17.1 µM (inactive); with A498, 19.5 µM (inactive); in the assay on A549 it was 16.9 µM (inactive); in the assay on SNB-19, 29 µM (inactive). The GI50 was 21.4 µM (inactive) in the assay on HT-29 and 17.4 µM (inactive) with NCI-H460.
Take `C(=N\c1nc2cc3sc(/N=C/c4ccccc4)nc3cc2s1)/c1ccccc1`: the GI50 with HOP-92 was > 76.9 µM (inactive); with BT-549, 54.2 µM (inactive); in the assay on OVCAR-5 it was > 69.2 µM (inactive); in the assay with UACC-62, 72.9 µM (inactive); in the assay with SW-620, 37.4 µM (inactive); in the assay with RPMI-8226, 29.7 µM (inactive). Also, the GI50 with CAKI-1 is > 79.4 µM (inactive); with SF-539, 32.5 µM (inactive); with SK-MEL-2, > 100 µM (inactive); in the assay with K562, 29.1 µM (inactive); with CCRF-CEM, 2.49 µM (inactive); in the assay with PC-3 it was 98.4 µM (inactive). Besides, the GI50 was > 100 µM (inactive) in the assay on SK-MEL-28; 20.7 µM (inactive) in the assay with NCI-H226; > 66.5 µM (inactive) in the assay on DU-145; > 95.7 µM (inactive) with A498; 9.66 µM (inactive) in the assay with A549; > 100 µM (inactive) with SNB-19. Also, the GI50 with HT-29 was 37.1 µM (inactive); in the assay on NCI-H460, 7.52 µM (inactive).
With `Cc1cc(N(CCC#N)CCC#N)ccc1/C=N/NC(=O)c1ccccc1`, the GI50 is 76.4 µM (inactive) in the assay with HOP-92; 42.7 µM (inactive) with BT-549; > 80.5 µM (inactive) in the assay on OVCAR-5; 10.4 µM (inactive) in the assay with UACC-62; 8.38 µM (inactive) in the assay on SW-620; 58.1 µM (inactive) in the assay with RPMI-8226. Moreover, the GI50 with CAKI-1 was 23.1 µM (inactive); in the assay with SF-539, 7.76 µM (inactive); with SK-MEL-2, 52.8 µM (inactive); with K562, 3.76 µM (inactive); in the assay on CCRF-CEM, 23.1 µM (inactive); in the assay with PC-3 it was 21.8 µM (inactive). Besides, the GI50 was 31.5 µM (inactive) in the assay on SK-MEL-28; 20.2 µM (inactive) with NCI-H226; 26.1 µM (inactive) with DU-145; 10.1 µM (inactive) in the assay with A498; 24.4 µM (inactive) in the assay on A549; > 59.2 µM (inactive) in the assay with SNB-19. In addition, the results for the GI50 with HT-29 and in the assay with NCI-H460 were 3.79 µM (inactive) and 9.1 µM (inactive), respectively.
For `COc1nc2c(c(=O)n1C)N=C(c1ccc(Cl)cc1)CC(c1ccccc1)N2` (stereo not given), the GI50 with HOP-92 is 42.8 µM (inactive); in the assay on BT-549, 27.4 µM (inactive); in the assay on OVCAR-5, 25.6 µM (inactive); in the assay on UACC-62, 17.6 µM (inactive); in the assay on SW-620, 46.3 µM (inactive); with RPMI-8226 it was 24 µM (inactive). The GI50 in the assay with CAKI-1 was 26.9 µM (inactive); with SF-539 it was 17.7 µM (inactive); with SK-MEL-2, 18.7 µM (inactive); in the assay on K562, 6.78 µM (inactive); with CCRF-CEM, 27.7 µM (inactive); in the assay with PC-3 it was 37.7 µM (inactive). The GI50 in the assay on SK-MEL-28 is 54.1 µM (inactive); in the assay on NCI-H226, 16.1 µM (inactive); in the assay with DU-145 it was 33.3 µM (inactive); in the assay with A498, 41.6 µM (inactive); with A549, 36.5 µM (inactive); in the assay on SNB-19 it was 38.8 µM (inactive). Also, the GI50 in the assay with HT-29 is 18.7 µM (inactive); with NCI-H460 it was 14.4 µM (inactive).
Consider `O=C1c2cccc3cc([N+](=O)[O-])cc(c23)C(=O)N1Nc1ccc([N+](=O)[O-])cc1[N+](=O)[O-]`, for which the GI50 in the assay with HOP-92 is 17.9 µM (inactive); in the assay on BT-549 it was 19.4 µM (inactive); in the assay on OVCAR-5, > 70.5 µM (inactive); with UACC-62, 13.6 µM (inactive); with SW-620, 10 µM (inactive); in the assay with RPMI-8226, 12.8 µM (inactive). For the same compound, the GI50 is 15.1 µM (inactive) in the assay on CAKI-1; 10.6 µM (inactive) with SF-539; > 100 µM (inactive) in the assay on SK-MEL-2; 4.29 µM (inactive) with K562; 1.85 µM (inactive) in the assay on CCRF-CEM; 17.9 µM (inactive) in the assay with PC-3. Also, the GI50 was 11.9 µM (inactive) in the assay with SK-MEL-28; 14.5 µM (inactive) in the assay with NCI-H226; 40.8 µM (inactive) in the assay on DU-145; 18.4 µM (inactive) in the assay with A498; 16.3 µM (inactive) in the assay with A549; 18.2 µM (inactive) with SNB-19. The GI50 in the assay on HT-29 is 12.9 µM (inactive); in the assay with NCI-H460, 7.41 µM (inactive).
`C=C1C[C@@H]2O[C@H]3[C@H]4[C@@H](C[C@@H](C)[C@@H](OC(C)=O)[C@H]42)[C@@H](C)CO[C@@]3(C)[C@H](OC(=O)CCCCCCC)C[C@H]1O`: the GI50 in the assay on HOP-92 was 15.2 µM (inactive); in the assay on BT-549, 17.2 µM (inactive); in the assay on OVCAR-5 it was 17.5 µM (inactive); with UACC-62, 16.3 µM (inactive); in the assay on SW-620, 21.4 µM (inactive); with RPMI-8226, 16.1 µM (inactive). For the same compound, the GI50 is 14.8 µM (inactive) with CAKI-1; 23.4 µM (inactive) in the assay with SF-539; 20.3 µM (inactive) in the assay on SK-MEL-2; 22.9 µM (inactive) in the assay on K562; 14.3 µM (inactive) in the assay with CCRF-CEM; 15.3 µM (inactive) with PC-3. Moreover, the GI50 in the assay on SK-MEL-28 was 17.4 µM (inactive); with NCI-H226 it was 10.5 µM (inactive); in the assay with DU-145, 14.9 µM (inactive); in the assay on A498, 16.2 µM (inactive); in the assay with A549, 18.2 µM (inactive); in the assay with SNB-19 it was 16.7 µM (inactive). Also, the GI50 is 20.1 µM (inactive) in the assay with HT-29 and 16.1 µM (inactive) in the assay with NCI-H460.
Turning to `CCN(CC)C(=S)SS(=O)(=O)c1ccccc1C(=O)O`, the GI50 with HOP-92 was > 100 µM (inactive); with BT-549, > 100 µM (inactive); in the assay on OVCAR-5, > 100 µM (inactive); in the assay with UACC-62, 66.4 µM (inactive); in the assay with SW-620, > 100 µM (inactive); in the assay on RPMI-8226, > 100 µM (inactive). The GI50 is > 78 µM (inactive) in the assay with CAKI-1; > 100 µM (inactive) in the assay on SF-539; > 100 µM (inactive) in the assay with SK-MEL-2; > 100 µM (inactive) in the assay on K562; 82 µM (inactive) with CCRF-CEM; > 100 µM (inactive) with PC-3. Moreover, the GI50 is > 100 µM (inactive) in the assay on SK-MEL-28; > 46.7 µM (inactive) with NCI-H226; > 100 µM (inactive) in the assay with DU-145; > 38 µM (inactive) in the assay with A498; 10.8 µM (inactive) with A549; > 94.2 µM (inactive) in the assay with SNB-19. Moreover, the GI50 with HT-29 is > 100 µM (inactive); in the assay on NCI-H460, > 20 µM (inactive).
